The assay deals with BDF1 mice, P388 leukemia ip, median survival T/C. Put plainly: NCI In Vivo Anticancer Drug Screen. Data for tumor model P388 Leukemia (intraperitoneal) in B6D2F1 (BDF1) mice. To be noted: endpoint: median survival time, higher = longer survival. The method in brief: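 In tumour-bearing mice, survival after compound treatment is set against the vehicle group and given as a quotient.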

The mark [1] stands for this setting: dose: 12.5 mg/kg/injection, schedule: Q01DX009 (ip), vehicle: other.
[2] abbreviates: dose: 25.0 mg/kg/injection, schedule: Q01DX009 (ip), vehicle: other.
[3] abbreviates: dose: 50.0 mg/kg/injection, schedule: Q01DX009 (ip), vehicle: saline.
The mark [4] stands for this setting: dose: 50.0 mg/kg/injection, schedule: Q01DX009 (ip), vehicle: saline with Tween-80.
Where [5] appears, read: dose: 100.0 mg/kg/injection, schedule: Q01DX009 (ip), vehicle: saline with Tween-80.
Where [6] appears, read: dose: 200.0 mg/kg/injection, schedule: Q01DX009 (ip), vehicle: saline with Tween-80.
Setting [7] is: dose: 400.0 mg/kg/injection, schedule: Q01DX009 (ip), vehicle: saline with Tween-80.
Where [8] appears, read: dose: 100.0 mg/kg/injection, schedule: Q04DX003 (ip), vehicle: saline with Tween-80.
Setting [9] is: dose: 200.0 mg/kg/injection, schedule: Q04DX003 (ip), vehicle: saline with Tween-80.
Where [10] appears, read: dose: 400.0 mg/kg/injection, schedule: Q04DX003 (ip), vehicle: saline with Tween-80.

The source of these data is PubChem BioAssay AID328 (DTP/NCI, 2004).

Several values for one entry are separate records, joined by “and”; a condition that tells them apart may be missing. Equal entries are not always repeated. Inconclusive results and toxic doses are left out.

Take `NC(CSCc1ccccc1)(CSCc1ccccc1)C(=O)O`: the T/C was 103 % of control under setting [1]; 122 % of control under setting [2]; 97 % of control and 110 % of control (dose: 50.0 mg/kg/injection, schedule: Q01DX009 (ip), vehicle: other); 117 % of control (dose: 100.0 mg/kg/injection, schedule: Q01DX009 (ip), vehicle: other); 96 % of control (dose: 200.0 mg/kg/injection, schedule: Q01DX009 (ip), vehicle: other); 94 % of control (dose: 400.0 mg/kg/injection, schedule: Q01DX009 (ip), vehicle: other).

Take `CC1=C(O)C(O)C2OC2C1=O` (configuration not stated): the T/C is, setting by setting: (dose: 12.5 mg/kg/injection, schedule: Q01DX009 (ip), vehicle: saline) 96 % of control; (dose: 25.0 mg/kg/injection, schedule: Q01DX009 (ip), vehicle: saline) 87 % of control; under setting [3], 107 % of control.

For the compound `N#CC1(NC(Cc2ccccc2)c2ccccc2)CCCCCCCCCCC1` (configuration not stated), the T/C by setting is: under setting [4], 92 % of control; under setting [5], 86 % of control; under setting [6], 104 % of control; under setting [7], 102 % of control.

In the case of `NC(C(=O)O)c1cc(=O)[nH]o1` (configuration not stated), the T/C reads like this: (dose: 0.25 mg/kg/injection, schedule: Q01DX009 (ip), vehicle: Klucel (hydroxypropylcellulose) (HPC)) 86 % of control; (dose: 0.5 mg/kg/injection, schedule: Q01DX009 (ip), vehicle: Klucel (hydroxypropylcellulose) (HPC)) 97 % of control; (dose: 1.0 mg/kg/injection, schedule: Q01DX009 (ip), vehicle: Klucel (hydroxypropylcellulose) (HPC)) 112 % of control.

With `COc1ccc(Br)cc1/C=N/N=C/c1cc(Br)ccc1OC`, the T/C reads like this: under setting [5], 95 % of control; under setting [6], 95 % of control; under setting [7], 95 % of control.

In the case of `COC1CC(C)C(OC)C2=CC(=O)C=C(NC(=O)/C(C)=C/C=C\C(C)C(OC(N)=O)/C(C)=C\C(C)C1OC)C2=O` (configuration not stated), the T/C (dose: 5.0 mg/kg/injection, schedule: Q01DX009 (ip), vehicle: saline + alcohol) was 150 % of control and the T/C (dose: 10.0 mg/kg/injection, schedule: Q01DX009 (ip), vehicle: saline + alcohol) is 171 % of control.

With `CCN(CC)c1cc(=S)c2c(ccc3ccccc32)o1`, the T/C is 100 % of control under setting [4], 106 % of control under setting [5] and 103 % of control under setting [6].

Take `CCOC(=O)c1nnc(-c2ccccc2)c(-c2ccccc2)n1`: the T/C runs as follows: under setting [8], 104 % of control; under setting [9], 96 % of control; under setting [10], 89 % of control.

As for `CC1=C(O)/C(=C\C(C)CCCC(C)/C=C/C=C(\C)CCCc2ccoc2)OC1=O` (configuration not stated), the T/C (dose: 5.0 mg/kg/injection, schedule: Q01DX009 (ip), vehicle: other) is 98 % of control; the T/C (dose: 10.0 mg/kg/injection, schedule: Q01DX009 (ip), vehicle: other) is 96 % of control; the T/C (dose: 20.0 mg/kg/injection, schedule: Q01DX009 (ip), vehicle: other) is 97 % of control.

`Cc1cc(C)c(C)c(Br)c1`: the T/C under setting [4] was 100 % of control and the T/C under setting [5] was 104 % of control.

With `CC[C@H](/C=C/[C@@H](C)[C@H]1CC[C@H]2[C@@H]3CC=C4C[C@@H](OC(=O)/C=C\C(=O)O)CC[C@]4(C)[C@H]3CC[C@]12C)C(C)C`, the T/C (dose: 6.25 mg/kg/injection, schedule: Q01DX009 (ip), vehicle: other) was 120 % of control; the T/C under setting [1] was 105 % of control; the T/C (dose: 18.75 mg/kg/injection, schedule: Q04DX003 (ip), vehicle: other) is 100 % of control; the T/C under setting [2] is 100 % of control; the T/C (dose: 37.5 mg/kg/injection, schedule: Q04DX003 (ip), vehicle: other) is 95 % of control; the T/C (dose: 75.0 mg/kg/injection, schedule: Q04DX003 (ip), vehicle: other) is 104 % of control.

Regarding `Cc1c2oc3c(C)c([N+](=O)[O-])cc(C(=O)NC4C(=O)NC(C(C)C)C(=O)N5CCCC5C(=O)N(C)CC(=O)N(C)C(C(C)C)C(=O)OC4C)c3nc-2c(C(=O)NC2C(=O)NC(C(C)C)C(=O)N3CCCC3C(=O)N(C)CC(=O)N(C)C(C(C)C)C(=O)OC2C)c(N)c1=O` (configuration not stated), the T/C reads like this: (dose: 150.0 micrograms/kg/injection, schedule: Q01DX009 (ip), vehicle: saline + alcohol) 153 % of control; (dose: 450.0 micrograms/kg/injection, schedule: Q04DX003 (ip), vehicle: saline + alcohol) 110 % of control; (dose: 600.0 micrograms/kg/injection, schedule: Q04DX003 (ip), vehicle: saline + alcohol) 108 % of control.

Regarding `O=C(Nc1cccc(Cl)c1)N1c2ccccc2SC1c1ccco1` (configuration not stated), the T/C under setting [4] is 91 % of control, the T/C under setting [5] was 107 % of control and the T/C under setting [6] is 109 % of control.

As for `c1ccc2c(c1)C1c3ccccc3C2C2COCC12` (configuration not stated), the T/C reads like this: (dose: 25.0 mg/kg/injection, schedule: Q01DX009 (ip), vehicle: Klucel (hydroxypropylcellulose) (HPC)) 105 % of control; (dose: 50.0 mg/kg/injection, schedule: Q01DX009 (ip), vehicle: Klucel (hydroxypropylcellulose) (HPC)) 110 % of control; (dose: 75.0 mg/kg/injection, schedule: Q04DX003 (ip), vehicle: Klucel (hydroxypropylcellulose) (HPC)) 108 % of control; (dose: 100.0 mg/kg/injection, schedule: Q01DX009 (ip), vehicle: Klucel (hydroxypropylcellulose) (HPC)) 100 % of control; (dose: 150.0 mg/kg/injection, schedule: Q04DX003 (ip), vehicle: Klucel (hydroxypropylcellulose) (HPC)) 104 % of control; (dose: 300.0 mg/kg/injection, schedule: Q04DX003 (ip), vehicle: Klucel (hydroxypropylcellulose) (HPC)) 86 % of control.

Regarding `Clc1ccc(CN2CCCN(Cc3ccc(Cl)c(Cl)c3)S2)cc1Cl`, the T/C runs as follows: under setting [4], 101 % of control; under setting [5], 97 % of control; under setting [6], 90 % of control.

On to `O=S(=O)(OC1=CCCCC1)C(F)(F)F`, for which the T/C under setting [3] is 104 % of control; the T/C (dose: 100.0 mg/kg/injection, schedule: Q01DX009 (ip), vehicle: saline) is 107 % of control; the T/C (dose: 200.0 mg/kg/injection, schedule: Q01DX009 (ip), vehicle: saline) is 109 % of control.

For `CC(=O)N(C)C(C(=O)N1CC(C)CC1C(=O)N(C)C1C(=O)NC(CC(C)C)C(=O)N2CC(C)CC2C(=O)NC(CC(C)C)C(=O)N(C)C(C(C)C)C(=O)N2CCCC2C(=O)N(C)C(CC(C)C)C(=O)NCC(=O)OC1C)C(C)C` (configuration not stated), the T/C (dose: 37.5 mg/kg/injection, schedule: Q01DX009 (ip), vehicle: Klucel (hydroxypropylcellulose) (HPC)) was 107 % of control and the T/C (dose: 75.0 mg/kg/injection, schedule: Q01DX009 (ip), vehicle: Klucel (hydroxypropylcellulose) (HPC)) was 107 % of control.

Turning to `C=C1CCN2CCCC12` (configuration not stated), the T/C runs as follows: (dose: 20.0 mg/kg/injection, schedule: Q01DX010 (ip), vehicle: carboxymethylcellulose (CMC)) 110 % of control; (dose: 40.0 mg/kg/injection, schedule: Q01DX010 (ip), vehicle: carboxymethylcellulose (CMC)) 100 % of control; (dose: 80.0 mg/kg/injection, schedule: Q01DX010 (ip), vehicle: carboxymethylcellulose (CMC)) 110 % of control.

Consider `COC(=O)C1(C(=O)OC)N=C(C)OO1`, for which the T/C runs as follows: under setting [4], 121 % of control; under setting [5], 112 % of control.

With `CCCn1cnc2c(=S)nc[nH]c21`, the T/C reads like this: under setting [5], 108 % of control; under setting [8], 109 % of control; under setting [9], 118 % of control; under setting [10], 113 % of control.

For the compound `COc1ccc(C=O)cc1OCc1ccccc1`, the T/C is, setting by setting: (dose: 6.25 mg/kg/injection, schedule: Q01DX009 (ip), vehicle: water) 113 % of control; (dose: 12.5 mg/kg/injection, schedule: Q01DX009 (ip), vehicle: water) 104 % of control; (dose: 25.0 mg/kg/injection, schedule: Q01DX009 (ip), vehicle: water) 109 % of control; (dose: 50.0 mg/kg/injection, schedule: Q01DX009 (ip), vehicle: water) 101 % of control and 116 % of control; (dose: 50.0 mg/kg/injection, schedule: Q04DX003 (ip), vehicle: water) 104 % of control; (dose: 100.0 mg/kg/injection, schedule: Q01DX009 (ip), vehicle: water) 95 % of control and 97 % of control. In addition, the T/C reads like this: (dose: 100.0 mg/kg/injection, schedule: Q04DX003 (ip), vehicle: water) 102 % of control and 117 % of control; (dose: 200.0 mg/kg/injection, schedule: Q01DX009 (ip), vehicle: water) 116 % of control; (dose: 200.0 mg/kg/injection, schedule: Q04DX003 (ip), vehicle: water) 102 % of control and 114 % of control; (dose: 400.0 mg/kg/injection, schedule: Q04DX003 (ip), vehicle: water) 117 % of control.

Consider `CC(=O)[C@H]1CC[C@H]2[C@@H]3CCC4=CC(=O)[C@H](C)C[C@]4(C)[C@@]3(F)C(=O)C[C@]12C`, for which the T/C under setting [5] was 95 % of control; the T/C under setting [8] is 120 % of control; the T/C under setting [6] was 90 % of control; the T/C under setting [9] is 110 % of control; the T/C under setting [10] was 100 % of control.
